# Results from the supplement of paper PMC6206229.
# Legend:
# [1] = tested on: Staphylococcus aureus ATCC 700699 (MRSA); test: minimum inhibitory concentration; extreme values may be limits of the assay
# Procedure, shortened: (§1)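 Broth microdilution in 96-well plates, following CLSI guidance with a resazurin redox read-out, was used to test methicillin-susceptible and methicillin-resistant Staphylococcus aureus. Compounds ranging from 0 to 100 µM were incubated with the bacteria at 37°C for 24 h, after which 30 µl of 0.015% resazurin was added for 2–4 h, and every plate carried positive controls. The minimum inhibitory concentration was taken as the lowest concentration at which wells stayed blue instead of turning pink, and runs were performed at least twice in triplicate.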
# [2] = tested on: Staphylococcus aureus ATCC 29213 (MSSA); test: as above
# Procedure, shortened: as §1
smiles,measurement,setting,value
O=C(Nc1c(O)cccc1-c1nc2c(C(=O)O)cccc2o1)c1cc(-c2ccccc2)on1,minimum inhibitory concentration,[1],> 50 µM
same,minimum inhibitory concentration,[2],> 50 µM
COc1cccc(OC)c1C(=O)Nc1ccc(Cl)c(-c2nc3ccccc3s2)c1,minimum inhibitory concentration,[1],> 50 µM
same,minimum inhibitory concentration,[2],> 50 µM
Cc1ccc2c(c1C)NC(=O)C21NN=C(c2ccccc2)S1 (stereo unspecified),minimum inhibitory concentration,[1],> 50 µM
same,minimum inhibitory concentration,[2],> 50 µM
CS(=O)(=O)Cc1nc2ccccc2oc1=O,minimum inhibitory concentration,[1],> 50 µM
same,minimum inhibitory concentration,[2],> 50 µM
COc1ccc(-c2cnc3cnc(-c4cccc(OC(C)C)c4)cn23)cc1,minimum inhibitory concentration,[1],> 50 µM
same,minimum inhibitory concentration,[2],> 50 µM
CC(C)(C)[C@H]1CC[C@H](CC2=C(O)C(=O)c3ccccc3C2=O)CC1,minimum inhibitory concentration,[1],> 50 µM
same,minimum inhibitory concentration,[2],> 50 µM
Cc1ccc(S(=O)(=O)N2CCN(C(=O)c3cc(-c4ccccc4)n[nH]3)CC2)cc1,minimum inhibitory concentration,[1],> 50 µM
same,minimum inhibitory concentration,[2],> 50 µM
O=C(C(Cc1c[nH]c2ccccc12)NS(=O)(=O)c1ccc(Cl)cc1)N1CCCCC1 (stereo unspecified),minimum inhibitory concentration,[1],> 50 µM
same,minimum inhibitory concentration,[2],> 50 µM
COc1ccc(-c2cc(NC(=O)c3ccc(F)cc3Cl)ccc2OC)cc1,minimum inhibitory concentration,[1],> 50 µM
same,minimum inhibitory concentration,[2],> 50 µM
N#Cc1nc(-c2ccccc2F)oc1NCCc1ccccc1,minimum inhibitory concentration,[1],> 50 µM
same,minimum inhibitory concentration,[2],> 50 µM
COC(=O)Nc1nc2cc(C(=O)c3ccccc3)ccc2[nH]1,minimum inhibitory concentration,[1],> 50 µM
same,minimum inhibitory concentration,[2],> 50 µM
CCc1nc2ccc(Cl)cn2c1C(=O)NCc1ccc(N2CCC(c3ccc(OC(F)(F)F)cc3)CC2)cc1,minimum inhibitory concentration,[1],> 50 µM
same,minimum inhibitory concentration,[2],> 50 µM
CCN(CC)CCCCCCNc1cc(OC)cc2c(C)ccnc12,minimum inhibitory concentration,[1],> 50 µM
same,minimum inhibitory concentration,[2],> 50 µM
COc1ccc(OC)c(NCc2ccc3nc(N)nc(N)c3c2Cl)c1,minimum inhibitory concentration,[1],50 µM
same,minimum inhibitory concentration,[2],50 µM
COc1ccc(N(CCc2cccc(C)n2)C(=O)C2CCCCC2)cc1,minimum inhibitory concentration,[1],> 50 µM
same,minimum inhibitory concentration,[2],> 50 µM
CC(C)(C)c1cc(C(=O)N2CCN(c3nccnc3C#N)CC2)n(Cc2ccccc2)n1,minimum inhibitory concentration,[1],> 50 µM
same,minimum inhibitory concentration,[2],> 50 µM
CC1(C)OB(O)c2ccc(C3=NOC(c4cc(Cl)c(F)c(Cl)c4)(C(F)(F)F)C3)cc21 (stereo unspecified),minimum inhibitory concentration,[1],6.25 µM
same,minimum inhibitory concentration,[2],6.25 µM
Cc1ccc(C(=O)Nc2ccc(S(=O)(=O)O)c3cc(S(=O)(=O)O)cc(S(=O)(=O)O)c23)cc1NC(=O)c1cccc(NC(=O)Nc2cccc(C(=O)Nc3cc(C(=O)Nc4ccc(S(=O)(=O)O)c5cc(S(=O)(=O)O)cc(S(=O)(=O)O)c45)ccc3C)c2)c1,minimum inhibitory concentration,[1],> 50 µM
same,minimum inhibitory concentration,[2],> 50 µM
CO[C@@H](C(=O)N1Cc2[nH]nc(NC(=O)c3ccc(N4CCN(C)CC4)cc3)c2C1)c1ccccc1,minimum inhibitory concentration,[1],> 50 µM
same,minimum inhibitory concentration,[2],> 50 µM
c1ccc(-c2cc(N3CCCCC3)c3ccccc3n2)nc1,minimum inhibitory concentration,[1],> 50 µM
same,minimum inhibitory concentration,[2],> 50 µM
C[C@@H]1[C@H](O)[C@@H](C)/C=C/C=C/C=C/C=C/C=C/C=C/C=C/[C@H](O[C@@H]2O[C@H](C)[C@@H](O)[C@H](N)[C@@H]2O)C[C@@H]2O[C@](O)(C[C@@H](O)C[C@@H](O)[C@H](O)CC[C@@H](O)C[C@@H](O)CC(=O)O[C@H]1C)C[C@H](O)[C@H]2C(=O)O,minimum inhibitory concentration,[1],50 µM
same,minimum inhibitory concentration,[2],50 µM
CC1CS(=O)(=O)CCN1/N=C/c1ccc([N+](=O)[O-])o1 (stereo unspecified),minimum inhibitory concentration,[1],> 50 µM
same,minimum inhibitory concentration,[2],> 50 µM
COc1ccc(Nc2ccccc2NC(=O)c2ccc(O)nc2)cc1,minimum inhibitory concentration,[1],> 50 µM
same,minimum inhibitory concentration,[2],> 50 µM
CC1CCCN(C(=O)C(C)Nc2cc(Cl)ccc2N2CCOCC2)C1 (stereo unspecified),minimum inhibitory concentration,[1],> 50 µM
same,minimum inhibitory concentration,[2],> 50 µM
NS(=O)(=O)c1cccc(-c2ccc3ncc(N4CCOCC4)nc3c2)c1,minimum inhibitory concentration,[1],> 50 µM
same,minimum inhibitory concentration,[2],> 50 µM
O=C(Nc1ccccc1-c1nc2c(C(=O)O)cccc2o1)c1ccccc1,minimum inhibitory concentration,[1],> 50 µM
same,minimum inhibitory concentration,[2],> 50 µM
O[C@@H](c1cc(C(F)(F)F)nc2c(C(F)(F)F)cccc12)[C@H]1CCCCN1,minimum inhibitory concentration,[1],25 µM
same,minimum inhibitory concentration,[2],50 µM
Cc1[nH]c2ccccc2c1C(c1cccs1)N1CCN(C)CC1 (stereo unspecified),minimum inhibitory concentration,[1],50 µM
same,minimum inhibitory concentration,[2],50 µM
Cc1ccc2cc(C3NC(=O)c4ccccc4N3)c(Cl)nc2c1 (stereo unspecified),minimum inhibitory concentration,[1],> 50 µM
same,minimum inhibitory concentration,[2],> 50 µM
COc1ccc(OC(C)C(=O)Nc2ccc(Cl)cc2C)cc1 (stereo unspecified),minimum inhibitory concentration,[1],> 50 µM
same,minimum inhibitory concentration,[2],> 50 µM
CC(=O)N1CCN(c2ccc(Oc3ccc(Cl)cc3O)cc2)CC1,minimum inhibitory concentration,[1],> 50 µM
same,minimum inhibitory concentration,[2],> 50 µM
Cc1nc(-c2cccc(NCc3ccccc3)c2)[nH]c1C,minimum inhibitory concentration,[1],50 µM
same,minimum inhibitory concentration,[2],50 µM
O=C(NC1=NCCS1)c1sc2cc(F)ccc2c1Cl,minimum inhibitory concentration,[1],> 50 µM
same,minimum inhibitory concentration,[2],> 50 µM
